The values that follow come from PubChem BioAssay AID1963831 (Molecular Pharmacology Branch, DTP, NCI, 2024).
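Note: spheroids exposed to compounds for seven days; 100% = DMSO vehicle control viability.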

The test system of the first assay is 889142-216-R-J1-PDC complex spheroid viability. Description: Anticancer human tumor 889142-216-R-J1-PDC patient-derived bladder carcinoma cell line growth inhibition [POLQ]. The note with it: second compound 0.316 µM; first compound 1 µM; stronger effect = lower value. As to the method: Multicellular complex tumor spheroid response to Polymerase (POL) inhibitors (novobiocin, ART-558, RP6685) in combination with a variety of drugs and investigational agents in selected tumor cell lines
The POL inhibitors (novobiocin, ART-558, and RP6685) were evaluated both individually and in combination with standard of care and investigational anticancer small molecules within a complex spheroid model of solid tumors. . Complex spheroids include a stromal component modeled by human endothelial cells (HUVEC) and fibroblasts modeled by human mesenchymal stem cells (MSCs). The concentration ranges selected for each drug and investigational agent were based upon clinically achievable concentrations if the clinical Cmax of the agent was known.
Compounds. The drugs and investigational agents: novobiocin (NSC847541), ART-558 (NSC835418), RP-6685 (NSC848927), peposertib (NSC802822), ceralasertib (NSC780249), elimusertib (NSC800525), camonsertib (NSC841442), AZD-1390 (NSC803789), olaparib (NSC753686), talazoparib (NSC767125), rucaparib (NSC756644), sotorasib (NSC818433), MRTX-1133 (NSC836407), SN-38 (NSC673596), topotecan (NSC609699), epotoside (NSC141540), doxorubicin (NSC123127), gemcitabine (NSC613327), 5-fluorouracil (NSC19893), paclitaxel (NSC125973), vemurafenib (NSC761431), MSA-2 (NSC828583), SN-011 (NSC837082), adavosertib (NSC754352), prexasertib (NSC758257), carboplatin (NSC241240) and oxaliplatin (NSC266046), were obtained from the National Cancer Institute (NCI) Developmental Therapeutics Program Chemical Repository (21). The FDA-approved anticancer drug set is available from the Developmental Therapeutics Program at https://dtp.cancer.gov/organization/dscb/obtaining/. […] The stock solutions were prepared in dimethyl sulfoxide (DMSO, Sigma-Aldrich, St. Louis, MO, cat. D2650), except for the platinum compounds which were prepared in saline (Quality Biological, Gaithersburg, MD, cat. 114-055-101), at 800-fold the tested concentration and stored at -70 degrees C prior to their use. All drugs and investigational agents were tested over a range starting from a high concentration at or near the clinical Cmax and decreasing in half-log increments. If the clinical Cmax for an agent had not been determined, the highest concentration tested was 10 microM, except for SN-38, which was tested at a high concentration of 1 microM.
Cell Culture. All cells were maintained in an incubator at 37 degrees C and 5% CO2 with 95% humidity. The PDC lines were cultured according to standard operating procedures established by the NCI PDMR (https://pdmr.cancer.gov). Table 3 of the manuscript, lists the cell lines along with the number of the three cell types plated to form the mct-spheroids and media for tumor cell growth. After thawing, all PDC lines, except 997537-175-T-J1-PDC and 415267-285-R-J2-PDC, were cultured in Matrigel-coated flasks prepared with a working solution of 1X Ham's F-12 nutrient mix, without supplementation (Thermo Fisher Scientific, cat. 11765054), 100 U/mL penicillin-streptomycin (Thermo Fisher Scientific, cat. 15140122), and 2.5% Matrigel (Corning Inc., Corning, NY, cat. 354248) for the first three passages. The two PDC lines 997537-175-T-J1-PDC and 415267-285-R-J2-PDC were cultured on uncoated flasks. The 857933-349-R-J2-PDC line was cultured in 6C/Colon 1B media containing advanced DMEM/F-12 (Thermo Fisher Scientific, cat. 12634028), 10 mM HEPES (Thermo Fisher Scientific, cat. 15630080), 1X GlutaMAX supplement (Thermo Fisher Scientific, cat. 35050061), 0.1 mg/mL primocin (InvivoGen, San Diego, CA, cat. ant-pm-2), 10% defined fetal bovine serum, heat inactivated (HyClone Laboratories Inc., Logan, UT, cat. SH30070.03HI), 50% L-WRN conditioned media (ATCC, cat. CRL-3276), 1.25 mM N-Acetyl-L-cysteine (Sigma-Aldrich, cat. A9165), 10 mM nicotinamide (Sigma-Aldrich, cat. N0636), 1X B-27 supplement (Thermo Fisher Scientific, cat. 17504044), 1X N-2 supplement (Thermo Fisher Scientific, cat. […]
In the case of `CC1COCCN1c1cc(C2(S(C)(=N)=O)CC2)nc(-c2ccnc3[nH]ccc23)n1` (stereo unspecified) + Cc1cccc(N(C)C(=O)C2C(O)CCN2c2nc(C)cc(C(F)(F)F)c2C#N)c1, the viability, T/C is 65.4%.
Same read-out and setting: the figure for `CCc1cc2c(N3CCc4c(cc(Cn5ccnc5)cc4-c4cn(C)nc4C(F)(F)F)C3=O)ccnc2c(OC)n1` + Cc1cccc(N(C)C(=O)C2C(O)CCN2c2nc(C)cc(C(F)(F)F)c2C#N)c1 is 140%.
Still for that read-out and setting: the figure for `COc1cc(C2c3cc4c(cc3C(OC3OC5COC(C)OC5C(O)C3O)C3COC(=O)C23)OCO4)cc(OC)c1O` (stereo unspecified) + Nc1ccc(C#CCN(C(=O)Cc2ncc(C(F)(F)F)cc2C(F)(F)F)c2ccc(F)cc2)nn1 is 69%.

Staying with this assay, now noted: second compound 0.316 µM; first compound 3.16 µM; stronger effect = lower value.
In the case of `CC1COCCN1c1cc(C2(S(C)(=N)=O)CC2)nc(-c2ccnc3[nH]ccc23)n1` (stereo unspecified) + Cc1cccc(N(C)C(=O)C2C(O)CCN2c2nc(C)cc(C(F)(F)F)c2C#N)c1, the viability, T/C was 43.7%.
For `CCc1cc2c(N3CCc4c(cc(Cn5ccnc5)cc4-c4cn(C)nc4C(F)(F)F)C3=O)ccnc2c(OC)n1` + Cc1cccc(N(C)C(=O)C2C(O)CCN2c2nc(C)cc(C(F)(F)F)c2C#N)c1, the viability, T/C was 132%.
On to `COc1cc(C2c3cc4c(cc3C(OC3OC5COC(C)OC5C(O)C3O)C3COC(=O)C23)OCO4)cc(OC)c1O` (stereo unspecified) + Nc1ccc(C#CCN(C(=O)Cc2ncc(C(F)(F)F)cc2C(F)(F)F)c2ccc(F)cc2)nn1, for which the viability, T/C is 79.2%.

The assay is the same for the next values; noted with them: second compound 0.316 µM; first compound 10 µM; stronger effect = lower value.
Consider `CC1COCCN1c1cc(C2(S(C)(=N)=O)CC2)nc(-c2ccnc3[nH]ccc23)n1` (stereo unspecified) + Cc1cccc(N(C)C(=O)C2C(O)CCN2c2nc(C)cc(C(F)(F)F)c2C#N)c1, for which the viability, T/C was 41.8%.
The same measure, in the same setting: the figure for `CCc1cc2c(N3CCc4c(cc(Cn5ccnc5)cc4-c4cn(C)nc4C(F)(F)F)C3=O)ccnc2c(OC)n1` + Cc1cccc(N(C)C(=O)C2C(O)CCN2c2nc(C)cc(C(F)(F)F)c2C#N)c1 is 76.8%; for `COc1cc(C2c3cc4c(cc3C(OC3OC5COC(C)OC5C(O)C3O)C3COC(=O)C23)OCO4)cc(OC)c1O` (stereo unspecified) + Nc1ccc(C#CCN(C(=O)Cc2ncc(C(F)(F)F)cc2C(F)(F)F)c2ccc(F)cc2)nn1 it is 54.4%.

The same assay, now with this note: second compound 1 µM; first compound 0.0316 µM; stronger effect = lower value.
For the molecule `CC1COCCN1c1cc(C2(S(C)(=N)=O)CC2)nc(-c2ccnc3[nH]ccc23)n1` (stereo unspecified) + Cc1cccc(N(C)C(=O)C2C(O)CCN2c2nc(C)cc(C(F)(F)F)c2C#N)c1, the viability, T/C is 111%.
With `CCc1cc2c(N3CCc4c(cc(Cn5ccnc5)cc4-c4cn(C)nc4C(F)(F)F)C3=O)ccnc2c(OC)n1` + Cc1cccc(N(C)C(=O)C2C(O)CCN2c2nc(C)cc(C(F)(F)F)c2C#N)c1, the viability, T/C is 93%.
The same measure, in the same setting: the figure for `COc1cc(C2c3cc4c(cc3C(OC3OC5COC(C)OC5C(O)C3O)C3COC(=O)C23)OCO4)cc(OC)c1O` (stereo unspecified) + Nc1ccc(C#CCN(C(=O)Cc2ncc(C(F)(F)F)cc2C(F)(F)F)c2ccc(F)cc2)nn1 is 121%.

The assay is the same for the next values; noted with them: second compound 1 µM; first compound 0.1 µM; stronger effect = lower value.
Take `CC1COCCN1c1cc(C2(S(C)(=N)=O)CC2)nc(-c2ccnc3[nH]ccc23)n1` (stereo unspecified) + Cc1cccc(N(C)C(=O)C2C(O)CCN2c2nc(C)cc(C(F)(F)F)c2C#N)c1: the viability, T/C is 106%.
For the molecule `CCc1cc2c(N3CCc4c(cc(Cn5ccnc5)cc4-c4cn(C)nc4C(F)(F)F)C3=O)ccnc2c(OC)n1` + Cc1cccc(N(C)C(=O)C2C(O)CCN2c2nc(C)cc(C(F)(F)F)c2C#N)c1, the viability, T/C is 85.7%.
Still for that read-out and setting: the figure for `COc1cc(C2c3cc4c(cc3C(OC3OC5COC(C)OC5C(O)C3O)C3COC(=O)C23)OCO4)cc(OC)c1O` (stereo unspecified) + Nc1ccc(C#CCN(C(=O)Cc2ncc(C(F)(F)F)cc2C(F)(F)F)c2ccc(F)cc2)nn1 is 95.6%.

The assay is the same for the next values; noted with them: second compound 1 µM; first compound 0.316 µM; stronger effect = lower value.
Regarding `CC1COCCN1c1cc(C2(S(C)(=N)=O)CC2)nc(-c2ccnc3[nH]ccc23)n1` (stereo unspecified) + Cc1cccc(N(C)C(=O)C2C(O)CCN2c2nc(C)cc(C(F)(F)F)c2C#N)c1, the viability, T/C is 70.7%.
In the case of `CCc1cc2c(N3CCc4c(cc(Cn5ccnc5)cc4-c4cn(C)nc4C(F)(F)F)C3=O)ccnc2c(OC)n1` + Cc1cccc(N(C)C(=O)C2C(O)CCN2c2nc(C)cc(C(F)(F)F)c2C#N)c1, the viability, T/C was 148%.
On the same count and under the same terms, the figure for `COc1cc(C2c3cc4c(cc3C(OC3OC5COC(C)OC5C(O)C3O)C3COC(=O)C23)OCO4)cc(OC)c1O` (stereo unspecified) + Nc1ccc(C#CCN(C(=O)Cc2ncc(C(F)(F)F)cc2C(F)(F)F)c2ccc(F)cc2)nn1 is 80.5%.

Staying with this assay, now noted: second compound 1 µM; first compound 1 µM; stronger effect = lower value.
In the case of `CC1COCCN1c1cc(C2(S(C)(=N)=O)CC2)nc(-c2ccnc3[nH]ccc23)n1` (stereo unspecified) + Cc1cccc(N(C)C(=O)C2C(O)CCN2c2nc(C)cc(C(F)(F)F)c2C#N)c1, the viability, T/C was 60.1%.
On the same count and under the same terms, the figure for `CCc1cc2c(N3CCc4c(cc(Cn5ccnc5)cc4-c4cn(C)nc4C(F)(F)F)C3=O)ccnc2c(OC)n1` + Cc1cccc(N(C)C(=O)C2C(O)CCN2c2nc(C)cc(C(F)(F)F)c2C#N)c1 is 122%.
Same read-out and setting: the figure for `COc1cc(C2c3cc4c(cc3C(OC3OC5COC(C)OC5C(O)C3O)C3COC(=O)C23)OCO4)cc(OC)c1O` (stereo unspecified) + Nc1ccc(C#CCN(C(=O)Cc2ncc(C(F)(F)F)cc2C(F)(F)F)c2ccc(F)cc2)nn1 is 58.2%.

The assay is the same for the next values; noted with them: second compound 1 µM; first compound 3.16 µM; stronger effect = lower value.
As for `CC1COCCN1c1cc(C2(S(C)(=N)=O)CC2)nc(-c2ccnc3[nH]ccc23)n1` (stereo unspecified) + Cc1cccc(N(C)C(=O)C2C(O)CCN2c2nc(C)cc(C(F)(F)F)c2C#N)c1, the viability, T/C was 50%.
Still for that read-out and setting: the figure for `CCc1cc2c(N3CCc4c(cc(Cn5ccnc5)cc4-c4cn(C)nc4C(F)(F)F)C3=O)ccnc2c(OC)n1` + Cc1cccc(N(C)C(=O)C2C(O)CCN2c2nc(C)cc(C(F)(F)F)c2C#N)c1 is 127%.
Still for that read-out and setting: the figure for `COc1cc(C2c3cc4c(cc3C(OC3OC5COC(C)OC5C(O)C3O)C3COC(=O)C23)OCO4)cc(OC)c1O` (stereo unspecified) + Nc1ccc(C#CCN(C(=O)Cc2ncc(C(F)(F)F)cc2C(F)(F)F)c2ccc(F)cc2)nn1 is 66%.

Still in this assay, the particulars now being: second compound 1 µM; first compound 10 µM; stronger effect = lower value.
For `CC1COCCN1c1cc(C2(S(C)(=N)=O)CC2)nc(-c2ccnc3[nH]ccc23)n1` (stereo unspecified) + Cc1cccc(N(C)C(=O)C2C(O)CCN2c2nc(C)cc(C(F)(F)F)c2C#N)c1, the viability, T/C was 41.5%.
With `CCc1cc2c(N3CCc4c(cc(Cn5ccnc5)cc4-c4cn(C)nc4C(F)(F)F)C3=O)ccnc2c(OC)n1` + Cc1cccc(N(C)C(=O)C2C(O)CCN2c2nc(C)cc(C(F)(F)F)c2C#N)c1, the viability, T/C was 74.5%.
As to `COc1cc(C2c3cc4c(cc3C(OC3OC5COC(C)OC5C(O)C3O)C3COC(=O)C23)OCO4)cc(OC)c1O` (stereo unspecified) + Nc1ccc(C#CCN(C(=O)Cc2ncc(C(F)(F)F)cc2C(F)(F)F)c2ccc(F)cc2)nn1, the viability, T/C is 56.9%.

Still in this assay, the particulars now being: second compound 3.16 µM; first compound 0.0316 µM; stronger effect = lower value.
For `CC1COCCN1c1cc(C2(S(C)(=N)=O)CC2)nc(-c2ccnc3[nH]ccc23)n1` (stereo unspecified) + Cc1cccc(N(C)C(=O)C2C(O)CCN2c2nc(C)cc(C(F)(F)F)c2C#N)c1, the viability, T/C was 92.4%.
The same measure, in the same setting: the figure for `CCc1cc2c(N3CCc4c(cc(Cn5ccnc5)cc4-c4cn(C)nc4C(F)(F)F)C3=O)ccnc2c(OC)n1` + Cc1cccc(N(C)C(=O)C2C(O)CCN2c2nc(C)cc(C(F)(F)F)c2C#N)c1 is 85.3%.
The same measure, in the same setting: the figure for `COc1cc(C2c3cc4c(cc3C(OC3OC5COC(C)OC5C(O)C3O)C3COC(=O)C23)OCO4)cc(OC)c1O` (stereo unspecified) + Nc1ccc(C#CCN(C(=O)Cc2ncc(C(F)(F)F)cc2C(F)(F)F)c2ccc(F)cc2)nn1 is 104%.

The same assay, now with this note: second compound 3.16 µM; first compound 0.1 µM; stronger effect = lower value.
Take `CC1COCCN1c1cc(C2(S(C)(=N)=O)CC2)nc(-c2ccnc3[nH]ccc23)n1` (stereo unspecified) + Cc1cccc(N(C)C(=O)C2C(O)CCN2c2nc(C)cc(C(F)(F)F)c2C#N)c1: the viability, T/C is 94.4%.
